{
  "source": "ChEMBL document CHEMBL6096681",
  "about": "“Examining Arginase-1 Trimerization Uncovers a Promising Allosteric Site for Inhibition” (J Med Chem, 2025)",
  "key": {"[1]": {"target": "T1, Arginase-1 (Homo sapiens) (UniProt P05089)", "T1 sequence (whole entry)": "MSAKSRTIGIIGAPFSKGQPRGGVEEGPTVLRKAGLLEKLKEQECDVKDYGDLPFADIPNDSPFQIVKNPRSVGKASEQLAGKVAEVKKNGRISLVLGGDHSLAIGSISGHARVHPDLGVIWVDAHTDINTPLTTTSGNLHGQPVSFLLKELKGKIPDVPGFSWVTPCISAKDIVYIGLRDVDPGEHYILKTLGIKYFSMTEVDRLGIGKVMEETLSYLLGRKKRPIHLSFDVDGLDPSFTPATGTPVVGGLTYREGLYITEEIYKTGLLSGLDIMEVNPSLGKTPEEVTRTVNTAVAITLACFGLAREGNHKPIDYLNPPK", "assay": "Inhibition of full length N-terminal his6-tagged human ARG-1 expressed in Escherichia coli BL21 (DE3) cells at 10 mM incubated for 24 hrs relative to control"}, "[2]": {"target": "T1, Arginase-1 (Homo sapiens)", "assay": "Inhibition of N-terminal his6-tagged truncated human ARG-1 expressed in Escherichia coli BL21 (DE3) cells at 10 mM incubated for 24 hrs"}, "[3]": {"target": "T1, Arginase-1 (Homo sapiens)", "assay": "Inhibition of full length N-terminal his6-tagged human ARG-1 expressed in Escherichia coli BL21 (DE3) cells upto 20 mM incubated for 24 hrs by coomassie blue staining based SDS/PAGE analysis"}, "[4]": {"target": "T1, Arginase-1 (Homo sapiens)", "assay": "Binding affinity to full length N-terminal his6-tagged human ARG-1 expressed in Escherichia coli BL21 (DE3) cells assessed as thermal stabilization at 0.625 to 20 mM measured for 24 hrs by nanoDSF analysis", "conditions": "dose 0.625-20 mM"}, "[5]": {"target": "T1, Arginase-1 (Homo sapiens)", "assay": "Binding affinity to N-terminal his6-tagged truncated human ARG-1 expressed in Escherichia coli BL21 (DE3) cells assessed as thermal stabilization at 20 mM measured for 24 hrs by nanoDSF analysis"}, "Homo sapiens": {"species": "Homo sapiens", "assay": "Inhibition of full length N-terminal his6-tagged human ARG-1 R205A mutant expressed in Escherichia coli BL21 (DE3) cells by mass spectrometry analysis"}},
  "note": "Active and inactive are the calls of the source. The calls are words filed in the database; no cut-off is given here.",
  "data": [
    {"compound": "O=CC(=O)c1ccccc1", "values": [
      {"measurement": "inhibition", "setting": "[1]", "value": 30, "unit": "%"},
      {"measurement": "inhibition", "setting": "[2]", "value": "Active"},
      {"measurement": "inhibition", "setting": "[3]", "value": "Active"},
      {"measurement": "Activity", "setting": "[4]", "value": "Active"},
      {"measurement": "Activity", "setting": "[5]", "value": "Active"},
      {"measurement": "inhibition", "setting": "Homo sapiens", "value": "Active"}
    ]}
  ]
}
